Assay results: US20110009264A1, “HERBICIDAL COMBINATION” (Bayer CropScience AG, priority 2007, published 2011)

How the values were obtained:
Veronica persica = experiment: Post-emergence action against weeds, greenhouse, visual scoring of control; type: in vivo; conditions: 11 days after application
Protocol: (§1) Seeds or rhizome pieces of monocotyledonous and dicotyledonous weeds were placed in sandy loam soil in plastic pots, covered with soil and cultivated in a greenhouse under good growth conditions. Three weeks after sowing, the test plants were treated at the 2- to 4-leaf stage. The compounds according to the invention, formulated as wettable powders or as emulsion concentrates, were sprayed onto the green parts of the plants in various dosages at a water application rate of 100 to 800 l/ha (converted). After the test plants had been left to stand in the greenhouse for 10 to 28 days under optimum growth conditions, the effect of the preparations was scored visually in comparison to untreated controls.
(§2) 0%=no control 100%=complete control

Polygonum convolvulus = experiment: as above; type: in vivo; conditions: 11 days after application
Protocol: as §1, with “(converted).” for “(converted). After the test plants had been left to stand in the greenhouse for 10 to 28 days under optimum growth conditions, the effect of the preparations was scored visually in comparison to untreated controls.”
as §2

Q: With O=C(O)c1nc(Cl)ccc1Cl [Compound B2-1, clopyralid] as the compound, how does the “Veronica persica Control in %” value (Veronica persica; 50 g of ai/ha) read?
A: 0%

Q: For Nc1nc(C2CC2)nc(C(=O)[O-])c1Cl.[K+] [Compound B6-1, aminocyclopyrachlor], which “Polygonum convolvulus Control in %” value (Polygonum convolvulus; 25 g of ai/ha) is on record?
A: 60%

Q: Which “Veronica persica Control in %” value (Veronica persica; 2.5 g of ai/ha, 0%=no control, 100%=complete control) does the source give for “sodium salt of 2-iodo-N-[(4-methoxy-6-methyl-1,3,5-triazin-2-yl)carbamoyl]benzenesulfonamide [Compound A-2]” here?
A: 0%

Q: Nc1c(Cl)c(Cl)nc(C(=O)O)c1Cl [Compound B2-4, picloram] was tested. Which “Polygonum convolvulus Control in %” value (Polygonum convolvulus; 80 g of ai/ha) did it give?
A: 20%

Q: With COc1c(Cl)ccc(Cl)c1C(=O)O [Compound B1-1, dicamba] as the compound, how does the “Polygonum convolvulus Control in %” value (Polygonum convolvulus; 100 g of ai/ha) read?
A: 40%

Q: With Nc1c(Cl)c(F)nc(OCC(=O)O)c1Cl [Compound B2-2, fluoroxypyr] as the compound, how does the “Veronica persica Control in %” value (Veronica persica; 80 g of ai/ha) read?
A: 60%
